Measured values taken from patent publication US20130261077A1 (priority 2012, published 2013).

These compounds were tested against T1, FimH-CRD (Escherichia coli, UniProt P08191) (assay: Competitive binding assay by fluorescence polarization, assay 1 (compounds prepared by manual serial dilution)).
T1 construct: The first 177 amino acids of the FimH protein; thrombin tag (printed as 'fusion protein with thrombin') (cleaved yes); made in house; host or cells: bacteria (pET21b plasmid)
T1 sequence (P08191 22-177): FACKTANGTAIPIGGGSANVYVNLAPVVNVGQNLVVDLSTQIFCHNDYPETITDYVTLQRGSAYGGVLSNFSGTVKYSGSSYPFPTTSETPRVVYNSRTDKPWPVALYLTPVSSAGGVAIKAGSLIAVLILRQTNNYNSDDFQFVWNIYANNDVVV
Procedure: The first 177 amino acids of the FimH protein were expressed as a fusion protein with thrombin in a pET21b plasmid in bacteria. This FimH protein sequence contains the carbohydrate recognition domain (CRD) and shall be termed FimH-CRD. Following bacterial expression of the protein, the FimH-CRD protein was purified to homogeneity and the thrombin tag removed by protease cleavage. A competitive binding assay by fluorescence polarization was performed using 5 nM of the Alexa 647 mannoside probe and 60 nM of the FimH-CRD. The samples are assayed in a low volume 384 well microtiter plate in a final volume of 20 μl. The final assay buffer conditions are the following, 50 mM Tris-Cl, ph 7.0, 100 mM NaCl, 1 mM EDTA, 5 mM β-mercaptoethanol, 0.05% BSA and 2.5% DMSO. Two assays are performed for FimH, termed assay 1 or assay 2. The assay conditions are the same for both assays except the following: assay 1 has compounds prepared by manual dilution in a serial dilution factor with 12-point dose response while assay 2 has compounds prepared by a robotics system also through a serial dilution factor (12 point dose response) and initially prepared in duplicate in 384 well-Corning polypropylene round bottom plates. The assay 2 plates have compound which is then frozen and must be thawed prior to use. Initially the Alexa 647 probe and the FimH-CRD are added to the assay buffer and then 0.5 μl of test compound (assay 1 or 2) between 0.4 nM to 75 μM final concentration are added (12 point titration with 3-fold serial dilution). Control wells for the Alexa 647 probe are prepared with the same conditions except for the addition of the FimH-CRD protein. Plates are then incubated for 5 hrs at room temperature in the dark and under humid conditions to prevent drying. Plates are read using the SpectraMax Paradigm multi-mode plate reader and the appropriate fluorescent polarization detection cartridge (Alexa-647).
Alexa 647 mannoside probe is prepared using the similar procedure reported for FAM mannoside (Han, Z. et. al., 2010, J. Med. Chem., 53, 4779) and is described in the scheme below.
To a blue colored stirred solution of (2S,3S,4S,5S,6R)-2-(4-aminobutoxy)-6-(hydroxymethyl)tetrahydropyran-3,4,5-triol (2.21 mg, 0.009 mmol) and the (2E)-2-[(2E,4E)-5-[3,3-dimethyl-5-sulfonato-1-(3-sulfonatopropyl)indol-1-ium-2-yl]penta-2,4-dienylidene]-3-[6-(2,5-dioxopyrrolidin-1-yl)oxy-6-oxo-hexyl]-3-methyl-1-(3-sulfonatopropyl)indoline-5-sulfonate (Potassium Ion (3)) (4.9 mg, 0.0044 mmol) in DMF (44 μL) is added Et3N (5.4 mg, 7.0 μL, 0.053 mmol) at RT. The solution is stirred at room temperature over night, concentrated, dissolved in water and purified on 12 g C-18 silica gel cartridge on Isolera system using acetonitrile in water (0 to 40%, 10 CV) and followed by lyophilization to afford Alexa 647 mannoside probe (3.3 mg, 34%) as deep blue solid.
The Kd values of the compounds are determined from dose response curves using twelve concentrations per compound in duplicate. Curves are fitted to data points using Fluorescence Polarization competitive displacement analysis, and Kds are interpolated from the resulting curves using GraphPad Prism software, version […] (GraphPad software Inc., San Diego, Calif., USA).
`C=CC[C@H]1O[C@H](CO)[C@@H](O)[C@H](O[C@H]2O[C@H](CO)[C@@H](O)[C@H](O)[C@@H]2O)[C@@H]1O` [Compound 281, (2R,3S,4S,5S,6R)-2-[(2R,3R,4R,5R,6R)-2-Allyl-3,5-dihydroxy-6-(hydroxymethyl)tetrahydropyran-4-yl]oxy-6-(hydro I amymethyl)tetrahydropyran-3,4,5-triol] gave an IC50 of 216 nM and a Kd of 51.1 ± 7.6 nM. In the case of `O=C(Nc1nc2ccc(Cl)cc2s1)c1cccc([C@H]2O[C@H](CO)[C@@H](O)[C@H](O)[C@@H]2O)c1` [Compound 30, N-(6-chlorobenzo[d]thiazol-2-yl)-3-((2R,3S,4R,5S,6R)-3,4,5-trihydroxy-6-(hydroxymethyl)tetrahydro-2H-pyran-2-yl)benzamide], the IC50 is reported as 53 nM and the Kd is reported as 9.8 ± 1.8 nM. `COC(=O)c1cccc(Oc2ccc([C@H]3O[C@H](CO)[C@@H](O)[C@H](O)[C@@H]3O)cc2)c1` [Compound 56, Methyl 3-(4-((2R,3S,4R,5S,6R)-3,4,5-trihydroxy-6-(hydroxymethyl)tetrahydro-2H-pyran-2-yl)phenoxy)benzoate] was tested, and the IC50 was 14 nM and the Kd was 5.4 ± 0.3 nM. With `Cc1nnc(NC(=O)c2cccc([C@H]3O[C@H](CO)[C@@H](O)[C@H](O)[C@@H]3O)c2)s1` [Compound 25, N-(5-methyl-1,3,4-thiadiazol-2-yl)-3-((2R,3S,4R,5S,6R)-3,4,5-trihydroxy-6-(hydroxymethyl)tetrahydro-2H-pyran-2-yl)benzamide] the IC50 was 36 nM and the Kd was 7 ± 0.5 nM. Compound `C[C@@H](NC(=O)Oc1cccc([C@H]2O[C@H](CO)[C@@H](O)[C@H](O)[C@@H]2O)c1)c1ccccc1` [Compound 72, 3-((2R,3S,4R,5S,6R)-3,4,5-trihydroxy-6-(hydroxymethyl)tetrahydro-2H-pyran-2-yl)phenyl (R)-1-phenylethylcarbamate] has an IC50 of 60 nM and a Kd of 16.2 ± 5.4 nM. For `O=C(Nc1cccs1)Oc1cccc([C@H]2O[C@H](CO)[C@@H](O)[C@H](O)[C@@H]2O)c1` [Compound 69, 3-((2R,3S,4R,5S,6R)-3,4,5-trihydroxy-6-(hydroxymethyl)tetrahydro-2H-pyran-2-yl)phenyl thiophen-2-ylcarbamate], the IC50 was 66 nM and the Kd was 13.1 ± 0.7 nM. In the case of `COc1cccc([C@H]2O[C@H](CO)[C@@H](O)[C@H](O[C@H]3O[C@H](CO)[C@@H](O)[C@H](O)[C@@H]3O)[C@@H]2O)c1` [Compound 284, (2R,3S,4S,5S,6R)-2-[(2R,3R,4R,5R,6R)-3,5-Dihydroxy-2-(hydroxymethyl)-6-(3-methoxyphenyl)tetrahydropyran-4-yl]oxy-6-(hydroxymethyl)tetrahydropyran-3,4,5-triol], the IC50 is reported as 49 nM and the Kd is reported as 166 ± 96.5 nM. For `O=C(Nc1ccc2[nH]ccc2c1)c1cccc([C@H]2O[C@H](CO)[C@@H](O)[C@H](O)[C@@H]2O)c1` [Compound 27, N-(1H-indol-5-yl)-3-((2R,3S,4R,5S,6R)-3,4,5-trihydroxy-6-(hydroxymethyl)tetrahydro-2H-pyran-2-yl)benzamide], the IC50 was 138 nM and the Kd was 37 ± 3.1 nM. `COC(=O)CCc1ccc(OC)c([C@H]2O[C@H](CO)[C@@H](O)[C@H](O)[C@@H]2O)c1` [Compound 42, Methyl 3-(4-methoxy-3-((2R,3S,4R,5S,6R)-3,4,5-trihydroxy-6-(hydroxymethyl)tetrahydro-2H-pyran-2-yl)phenyl)propanoate] was tested, and the IC50 was 225 nM and the Kd was 58.4 ± 9.8 nM. `COC(=O)c1ccc(CCC[C@H]2O[C@H](CO)[C@@H](O)[C@H](O[C@H]3O[C@H](CO)[C@@H](O)[C@H](O)[C@@H]3O)[C@@H]2O)cc1` [Compound 283, Methyl 4-[3-[(2R,3R,4R,5R,6R)-3,5-dihydroxy-6-(hydroxymethyl)-4-[(2R,3S,4S,5S,6R)-3,4,5-trihydroxy-6-(hydroxymethyl)tetrahydropyran-2-yl]oxy-tetrahydropyran-2-yl]propyl]benzoate] showed an IC50 of 27 nM and a Kd of 10.8 ± 4.1 nM. For `OC[C@H]1O[C@H](O[C@@H]2[C@H](O)[C@@H](c3cccc(Oc4ccccc4)c3)O[C@H](CO)[C@H]2O)[C@@H](O)[C@@H](O)[C@@H]1O` [Compound 271, (2R,3S,4S,5S,6R)-2-[(2R,3R,4R,5R,6R)-3,5-Dihydroxy-2-(hydroxymethyl)-6-(3-phenoxyphenyl)tetrahydropyran-4-yl]oxy-6-(hydroxymethyl)tetrahydropyran-3,4,5-triol], the IC50 was 27 nM and the Kd was 14.7 ± 7 nM. Compound `CS(=O)(=O)c1ccc(-c2cccc([C@H]3O[C@H](CO)[C@@H](O)[C@H](O)[C@@H]3O)c2)cc1` [Compound 21] has an IC50 of 92 nM and a Kd of 12.3 ± 5.1 nM. With `OC[C@H]1O[C@H](c2cccc(/C=C\c3ccccc3)c2)[C@@H](O)[C@@H](O)[C@@H]1O` [Compound 139, (2R,3S,4R,5S,6R)-2-(hydroxymethyl)-6-[3-[(Z)-styryl]phenyl]tetrahydropyran-3,4,5-triol] the Kd was < 5 nM. In the case of `CNC(=O)c1ccc(-c2cccc([C@H]3O[C@H](CO)[C@@H](O)[C@H](O)[C@@H]3O)c2)cc1` [Compound 2, N-methyl-4-[3-[(2R,3S,4R,5S,6R)-3,4,5-trihydroxy-6-(hydroxymethyl)tetrahydropyran-2-yl]phenyl]benzamide], the IC50 is reported as 29 nM and the Kd is reported as < 5 nM. For `OC[C@H]1O[C@H](c2cccc(F)c2)[C@@H](O)[C@@H](O)[C@@H]1O` [Compound 47, (2R,3S,4R,5S,6R)-2-(3-fluorophenyl)-6-(hydroxymethyl)tetrahydropyran-3,4,5-triol], the IC50 was 163 nM and the Kd was 40.6 ± 10.4 nM. In the case of `COC(=O)c1ccc(Oc2cccc([C@H]3O[C@H](CO)[C@@H](O)[C@H](O)[C@@H]3O)c2)cc1` [Compound 52, Methyl 4-[3-[(2R,3S,4R,5S,6R)-3,4,5-trihydroxy-6-(hydroxymethyl)tetrahydropyran-2-yl]phenoxy]benzoate], the IC50 is reported as 23 nM and the Kd is reported as < 5 nM. For `O=C(NCC1CC1)c1cccc([C@H]2O[C@H](CO)[C@@H](O)[C@H](O)[C@@H]2O)c1` [Compound 37, N-(cyclopropylmethyl)-3-((2R,3S,4R,5S,6R)-3,4,5-trihydroxy-6-(hydroxymethyl)tetrahydro-2H-pyran-2-yl)benzamide], the Kd was 40.1 ± 15.1 nM. Work on `Cn1cnc2ccc(-c3cccc([C@H]4O[C@H](CO)[C@@H](O)[C@H](O[C@H]5O[C@H](CO)[C@@H](O)[C@H](O)[C@@H]5O)[C@@H]4O)c3)cc21` [Compound 280, (2R,3S,4S,5S,6R)-2-[(2R,3R,4R,5R,6R)-3,5-Dihydroxy-2-(hydroxymethyl)-6-[3-(3-methylbenzimidazol-5-yl)phenyl]tetrahydropyran-4-yl]oxy-6-(hydroxymethyl)tetrahydropyran-3,4,5-triol (Trifluoroacetate Ion (1))] yielded an IC50 of 59 nM and a Kd of 18.1 ± 7.1 nM. `OC[C@H]1O[C@H](c2ccccc2O)[C@@H](O)[C@@H](O)[C@@H]1O` [Compound 45, (2R,3S,4R,5S,6R)-2-(hydroxymethyl)-6-(2-hydroxyphenyl)tetrahydropyran-3,4,5-triol] gave an IC50 of 183 nM and a Kd of 76.9 ± 49.1 nM. With `Cc1cc(C)cc(Oc2cccc([C@H]3O[C@H](CO)[C@@H](O)[C@H](O[C@H]4O[C@H](CO)[C@@H](O)[C@H](O)[C@@H]4O)[C@@H]3O)c2)c1` [Compound 274, (2R,3S,4S,5S,6R)-2-[(2R,3R,4R,5R,6R)-2-[3-(3,5-Dimethylphenoxy)phenyl]-3,5-dihydroxy-6-(hydroxymethyl)tetrahydropyran-4-yl]oxy-6-(hydroxymethyl)tetrahydropyran-3,4,5-triol] the IC50 was 34 nM and the Kd was 43.1 ± 53 nM. Compound `COC(=O)Cc1ccccc1-c1cccc([C@H]2O[C@H](CO)[C@@H](O)[C@H](O)[C@@H]2O)c1` [Compound 66, Methyl 2-(3′-((2R,3S,4R,5S,6R)-3,4,5-trihydroxy-6-(hydroxymethyl)tetrahydro-2H-pyran-2-yl)-[1,1′-biphenyl]-2-yl)acetate] has an IC50 of 24 nM and a Kd of 14.3 ± 6.6 nM.
